Measurements published in US20100022640A1, “ESTERS OF 2-[…] AND ANTIFUNGAL COMPOSITIONS CONTAINING THEM” (priority 2006, published 2010).
Converted amounts (≈) assume the structure as drawn.

Experiments:
Format in all cases: cell-based
Aspergillis niger = test: Fungistatic endpoint in inoculated culture medium, Aspergillis niger; conditions: lowest concentration preventing visible growth, Bushnell-Haas medium with dextrose 10 g/L and yeast extract 0.1 g/L, pH 7.0; for MIC: read-out: Fungistatic Endpoint (ppm Range) Aspergillis niger
Protocol: (§1) The microorganisms involved in these tests were Aspergillis niger, Candida albicans, Trichophyton metagrophytes, and Pichia pastoris. The various esters tested are listed in the following table together with their fungistatic endpoints.
(§2) Fungistatic endpoints were determined by combining the compounds at several dosage levels in a culture medium which had been freshly inoculated with spores of the test organisms. Five mL aliquots were placed in sterile culture tubes. The test compounds dissolved in the appropriate solvent were added to obtain the desired concentration of the compound in the culture medium. Following incubation at suitable conditions, the presence of growth was determined visually at each concentration of the biocide. The lowest concentration of the compound preventing growth was taken as the fungistatic endpoint. Controls containing the solvent alone at the highest dosage were made to insure that no microbial inhibition was produced by the solvent.
(§3) The culture media used in these tests was the Bushnell-Haas medium from Difco. Dextrose at 10 g/L and yeast extract at 0.1 g/L were added to obtain growth of the test organisms. The dilute solution of the Bushnell Haas media which was used in these tests contains: 0.20 g/L magnesium sulfate; 0.02 g/L calcium chloride; 1.00 g/L monopotassium phosphate; 1.00 g/L dipotassium phosphate; 1.00 g/L ammonium nitrate, and 0.05 g/L ferric chloride. The final pH of the media was 7.0±0.2 at 25° C.

[1] = system: Trichophyton metagrophytes; test: Fungistatic endpoint in inoculated culture medium, T. metagrophytes; conditions: lowest concentration preventing visible growth, Bushnell-Haas medium with dextrose 10 g/L and yeast extract 0.1 g/L, pH 7.0; for MIC: Trichophyton, read-out: Fungistatic Endpoint (ppm Range) T. metagrophytes
Protocol: as §1, §2, §3

Candida albicans = test: Fungistatic endpoint in inoculated culture medium, Candida albicans; conditions: lowest concentration preventing visible growth, Bushnell-Haas medium with dextrose 10 g/L and yeast extract 0.1 g/L, pH 7.0; for MIC: Candida albicans, read-out: Fungistatic Endpoint (ppm Range) Candida albicans
Protocol: as §1, §2, §3

Pichia pastoris = test: Fungistatic endpoint in inoculated culture medium, Pichia pastoris; conditions: lowest concentration preventing visible growth, Bushnell-Haas medium with dextrose 10 g/L and yeast extract 0.1 g/L, pH 7.0; for MIC: Komagataella pastoris, read-out: Fungistatic Endpoint (ppm Range) Pichia. pastoris
Protocol: as §1, §2, §3

Structure (SMILES) | MIC (Aspergillis niger) | MIC [1] | MIC (Candida albicans) | MIC (Pichia pastoris) | other results
COCC(OC(C)=O)C(C#N)c1ccc(Cl)cc1 (stereo not drawn) [Example 20, 3-acetoxy-2-(4-chlorophenyl)-4-methoxybutanenitrile] | 64 to 128 µg/mL (≈ 239 to 478 µM) |  |  |  | 
CCOC(=O)C(OC(C)=O)C(C#N)c1ccc(Cl)cc1 (stereo not drawn) [Example 28, ethyl 2-acetoxy-3-(4-chlorophenyl)-3-cyanopropanoate] | 128 µg/mL (≈ 433 µM) |  |  |  | 
N#CC(COC=O)c1cc(Cl)ccc1Cl (stereo not drawn) [Example 30, 2-(2,5-dichlorophenyl)-3-(formyloxy)propanenitrile] | < 16 µg/mL | < 16 µg/mL | < 16 µg/mL |  | 
CC(=O)OCC(C#N)c1cc(Cl)ccc1Cl (stereo not drawn) [Example 6, 3-acetoxy-2-(2,5-dichlorophenyl)propanenitrile] |  | < 16 µg/mL | < 16 µg/mL |  | 
CC(=O)OCC(C#N)c1ccccc1Cl (stereo not drawn) [Example 14, 3-acetoxy-2-(2-chlorophenyl)propanenitrile] |  | 32 µg/mL (≈ 143 µM) | 16 µg/mL (≈ 71.5 µM) | 16 µg/mL (≈ 71.5 µM) | 
CC(=O)OCC(C#N)c1ccc(Cl)cc1 (stereo not drawn) [Example 16, 3-acetoxy-2-(4chlorophenyl)propanenitrile] |  | < 16 µg/mL | < 16 µg/mL | < 16 µg/mL | 
CC(=O)OCC(C#N)c1cc(Cl)ccc1OC(F)F (stereo not drawn) [Example 7, 3-acetoxy-2-(5-chloro-2-(difluoromethoxy)phenyl)propanenitrile] |  | 32 µg/mL (≈ 110 µM) | 32 µg/mL (≈ 110 µM) | 32 µg/mL (≈ 110 µM) | 
CC(=O)OCC(C#N)c1ccc(Cl)cc1Cl (stereo not drawn) [Example 8, 3-acetoxy-2-(2,4-dichlorophenyl)propanenitrile] |  | 16 to 32 µg/mL (≈ 62 to 124 µM) | 16 µg/mL (≈ 62 µM) | < 16 µg/mL | 
CC(=O)OCC(C#N)c1ccccc1 (stereo not drawn) [Example 32, 3-acetoxy-2-phenylpropanenitrile] |  | 16 µg/mL (≈ 84.6 µM) | > 64 µg/mL | 16 to 32 µg/mL (≈ 84.6 to 169 µM) | 
COc1ccc(C(C#N)C(C)OC(C)=O)cc1 (stereo not drawn) [Example 25, 3-acetoxy-2-(4-methoxyphenyl)butanentrile] |  |  |  |  | Fungistatic Endpoint (ppm Range) Aspergillis niger (Aspergillis niger): 128-256 ppm
CC(=O)OCC(C#N)c1ccccc1C(F)(F)F (stereo not drawn) [Example 10, 3-acetoxy-2-(2-(trifluoromethyl)phenyl)propanenitrile] | 128 to 256 µg/mL (≈ 498 to 995 µM) | > 64 µg/mL | > 64 µg/mL | > 64 µg/mL | 
COCC(OC(C)=O)C(C#N)c1ccc(OC)cc1 (stereo not drawn) [Example 26, 3-acetoxy-2-(4-methoxyphenyl)-4-methoxybutanenitrile] | 128 to 256 µg/mL (≈ 486 to 972 µM) |  |  |  | 
CC(=O)OC(C)C(C#N)c1ccc(C)cc1 (stereo not drawn) [Example 22, 3-acetoxy-2-(4-methylphenyl)butanenitrile] | 128 to 256 µg/mL (≈ 589 to 1180 µM) |  |  |  | 
COc1ccc(C(C#N)COC(C)=O)cc1 (stereo not drawn) [Example 24, 3-acetoxy-2-(4-methoxyphenyl)propanenitrile] | 128 µg/mL (≈ 584 µM) |  |  |  | 
CC(=O)OCC(C#N)c1cccc(Oc2ccccc2)c1 (stereo not drawn) [Example 33] |  |  |  |  | Fungistatic Endpoint (ppm Range) Aspergillis niger (Aspergillis niger): 128-256 ppm
COCC(OC(C)=O)C(C#N)c1ccc(C)cc1 (stereo not drawn) [Example 23, 3-acetoxy-2-(4-methylphenyl)-4methoxybutanenitride] |  |  |  |  | Fungistatic Endpoint (ppm Range) Aspergillis niger (Aspergillis niger): 128-256 ppm
N#CC(COC(=O)Cc1ccccc1)c1cc(OC(F)F)ccc1Cl (stereo not drawn) [Example 31] |  |  |  |  | Fungistatic Endpoint (ppm Range) T. metagrophytes [1]: <16 ppm; Fungistatic Endpoint (ppm Range) Candida albicans (Candida albicans): >64 ppm; Fungistatic Endpoint (ppm Range) Pichia. pastoris (Pichia pastoris): 64 ppm
CC(=O)OCC(C#N)c1ccc(Cl)cc1C (stereo not drawn) [Example 12, 3-acetoxy-2-(4-chloro-2-methylphenyl)propanenitrile] | 64 to 128 µg/mL (≈ 269 to 539 µM) | > 64 µg/mL | > 64 µg/mL | > 64 µg/mL | 
CC(=O)OCC(C#N)c1cc(OC(F)F)ccc1Cl (stereo not drawn) [Example 5, 3-acetoxy-2-(2-chloro-5-(difluoromethoxy)phenyl)propanenitrile] |  | < 16 µg/mL | < 16 µg/mL |  | 
CC(=O)OCC(C#N)c1ccc(C)cc1 (stereo not drawn) [Example 21, 3-acetoxy-2-(4-methylphenyl)propanenitrile] | 64 µg/mL (≈ 315 µM) |  |  |  | 
N#CC(COC=O)c1cc(OC(F)F)ccc1Cl (stereo not drawn) [Example 29, 2-(2-chloro-5-(difluoromethoxy)phenyl)-3-(formyloxy)propanenitrile] | < 16 µg/mL | < 16 µg/mL | < 16 µg/mL |  | 
CC(=O)OC(C)C(C#N)c1ccc(Cl)cc1 (stereo not drawn) [Example 19, 3-acetoxy-2-(4-chlorophenyl)butanenitrile] |  | 32 to 64 µg/mL (≈ 135 to 269 µM) | 16 to 32 µg/mL (≈ 67.3 to 135 µM) | 16 µg/mL (≈ 67.3 µM) | 
